In the supplement of paper PMC11451515:

Tested on: SEM cells
Assay: cell viability relative to DMSO control; higher = less cytotoxic
Conditions: 48 h
In short: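 NOMO1 or SEM cells were plated at 500 cells/well and P12-Ichikawa cells at 1000 cells/well in 1536-well plates (5 μl), after each leukemia line had been adapted for at least four passages in each medium. Pin dosing delivered library compounds in DMSO at 11 threefold concentrations, 47 μM to 0.79 nM. CellTiter-Glo One luminescence was read after 48 h at 37°C. Viability is reported as a per-plate percentage of DMSO wells, with cell-free wells as background.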

[1] = HPLM + 10% dialyzed FBS, 0.000781 µM
[2] = HPLM + 10% dialyzed FBS, 0.00234 µM
[3] = HPLM + 10% dialyzed FBS, 0.00702 µM
[4] = HPLM + 10% dialyzed FBS, 0.0211 µM
[5] = HPLM + 10% dialyzed FBS, 0.0632 µM
[6] = HPLM + 10% dialyzed FBS, 0.19 µM
[7] = HPLM + 10% dialyzed FBS, 0.569 µM
[8] = HPLM + 10% dialyzed FBS, 1.71 µM
[9] = HPLM + 10% dialyzed FBS, 5.12 µM
[10] = HPLM + 10% dialyzed FBS, 15.4 µM
[11] = HPLM + 10% dialyzed FBS, 46.1 µM
[12] = RPMI 5 mM glucose + 10% FBS, 0.000781 µM
[13] = RPMI 5 mM glucose + 10% FBS, 0.00234 µM
[14] = RPMI 5 mM glucose + 10% FBS, 0.00702 µM
[15] = RPMI 5 mM glucose + 10% FBS, 0.0211 µM
[16] = RPMI 5 mM glucose + 10% FBS, 0.0632 µM
[17] = RPMI 5 mM glucose + 10% FBS, 0.19 µM
[18] = RPMI 5 mM glucose + 10% FBS, 0.569 µM
[19] = RPMI 5 mM glucose + 10% FBS, 1.71 µM
[20] = RPMI 5 mM glucose + 10% FBS, 5.12 µM
[21] = RPMI 5 mM glucose + 10% FBS, 15.4 µM
[22] = RPMI 5 mM glucose + 10% FBS, 46.1 µM
[23] = RPMI 5 mM glucose + 10% dialyzed FBS, 0.000781 µM
[24] = RPMI 5 mM glucose + 10% dialyzed FBS, 0.00234 µM
[25] = RPMI 5 mM glucose + 10% dialyzed FBS, 0.00702 µM
[26] = RPMI 5 mM glucose + 10% dialyzed FBS, 0.0211 µM
[27] = RPMI 5 mM glucose + 10% dialyzed FBS, 0.0632 µM
[28] = RPMI 5 mM glucose + 10% dialyzed FBS, 0.19 µM
[29] = RPMI 5 mM glucose + 10% dialyzed FBS, 0.569 µM
[30] = RPMI 5 mM glucose + 10% dialyzed FBS, 1.71 µM
[31] = RPMI 5 mM glucose + 10% dialyzed FBS, 5.12 µM
[32] = RPMI 5 mM glucose + 10% dialyzed FBS, 15.4 µM
[33] = RPMI 5 mM glucose + 10% dialyzed FBS, 46.1 µM

| Compound | cell viability [1] [%] | cell viability [2] [%] | cell viability [3] [%] | cell viability [4] [%] | cell viability [5] [%] | cell viability [6] [%] | cell viability [7] [%] | cell viability [8] [%] | cell viability [9] [%] | cell viability [10] [%] | cell viability [11] [%] | cell viability [12] [%] | cell viability [13] [%] | cell viability [14] [%] | cell viability [15] [%] | cell viability [16] [%] | cell viability [17] [%] | cell viability [18] [%] | cell viability [19] [%] | cell viability [20] [%] | cell viability [21] [%] | cell viability [22] [%] | cell viability [23] [%] | cell viability [24] [%] | cell viability [25] [%] | cell viability [26] [%] | cell viability [27] [%] | cell viability [28] [%] | cell viability [29] [%] | cell viability [30] [%] | cell viability [31] [%] | cell viability [32] [%] | cell viability [33] [%] |
| --- | --- | --- | --- | --- | --- | --- | --- | --- | --- | --- | --- | --- | --- | --- | --- | --- | --- | --- | --- | --- | --- | --- | --- | --- | --- | --- | --- | --- | --- | --- | --- | --- | --- |
| Cc1nc2c([nH]1)-c1ccccc1N(C(=O)c1ccc(NC(=O)c3ccccc3-c3ccccc3)cc1)CC2 | 91.3 | 115 | 90.8 | 123 | 114 | 122 | 123 | 115 | 113 | 128 | 124 | 123 | 120 | 100 | 138 | 129 | 129 | 141 | 163 | 128 | 149 | 118 | 111 | 143 | 108 | 131 | 140 | 160 | 130 | 121 | 127 | 166 | 124 |
| CN(C)CCC=C1C2=C(C=CC=C2)\C=C/C3=C1C=CC=C3 | 108 | 115 | 120 | 100 | 116 | 124 | 116 | 101 | 108 | 99.1 | 72.2 | 108 | 116 | 106 | 109 | 109 | 112 | 93.1 | 68.7 | 102 | 101 | 84.9 | 112 | 108 | 129 | 130 | 119 | 128 | 112 | 106 | 116 | 108 | 81.7 |
| CCOP(=O)(OCC)C(C)NC(=O)N(CCCl)N=O (stereo unspecified) | 101 | 109 | 125 | 114 | 126 | 128 | 129 | 122 | 119 | 127 | 94.9 | 90.7 | 98.1 | 98.7 | 104 | 101 | 111 | 78.4 | 95.5 | 87.1 | 84.6 | 74.4 | 108 | 97 | 116 | 122 | 112 | 127 | 127 | 137 | 107 | 103 | 81.2 |
| CCCCc1oc2ccc(NS(C)(=O)=O)cc2c1C(=O)c1ccc(OCCCN(CCCC)CCCC)cc1 | 62.8 | 66 | 80.9 | 87.6 | 92.6 | 86.6 | 101 | 98.7 | 70.2 | 78.6 | 8.35 | 88.9 | 87.5 | 98.2 | 109 | 95.6 | 92.6 | 101 | 108 | 96.3 | 94.1 | 14.9 | 94.8 | 94.1 | 98.4 | 108 | 107 | 99.3 | 100 | 109 | 97 | 94.7 | 6.45 |
| CC(C)c1ccc2oc3nc(N)c(C(=O)O)cc3c(=O)c2c1 | 106 | 109 | 96.6 | 109 | 126 | 108 | 128 | 115 | 106 | 118 | 102 | 116 | 131 | 122 | 122 | 145 | 134 | 150 | 121 | 134 | 140 | 137 | 98 | 118 | 134 | 141 | 141 | 131 | 143 | 127 | 146 | 146 | 129 |
| CN(C)c1ccc(C(=O)NCCCCCCC(=O)NO)cc1 | 97.1 | 94.4 | 91.8 | 88.1 | 97.7 | 96.2 | 93.9 | 34 | 3.1 | 1.85 | 2.9 | 91.8 | 100 | 94.6 | 92 | 112 | 94.8 | 76.2 | 37.3 | 3.1 | 1.95 | 3.03 | 93.2 | 111 | 105 | 96.4 | 95 | 90.7 | 83.5 | 31.4 | 2.63 | 1.52 | 3.31 |
| CC1(C)O[C@H]2CC(=O)OC[C@]23[C@H]2CC[C@@]4(C)[C@H](c5ccoc5)OC(=O)[C@H]5O[C@]54[C@]2(C)C(=O)C[C@@H]13 | 84.1 | 86.8 | 95.3 | 96.2 | 108 | 106 | 104 | 105 | 96.7 | 89.4 | 98.7 | 83.8 | 98.8 | 98.4 | 88.8 | 99.2 | 86 | 105 | 88.2 | 96.5 | 85.2 | 93.2 | 74.6 | 102 | 97.5 | 83.1 | 99 | 90 | 109 | 76.6 | 84.8 | 102 | 90 |
| CCCn1c(=O)c2[nH]c(-c3cnn(Cc4cccc(C(F)(F)F)c4)c3)nc2n(CC)c1=O | 100 | 109 | 111 | 120 | 109 | 124 | 124 | 113 | 107 | 109 | 95.4 | 95.8 | 89.9 | 106 | 109 | 103 | 108 | 99.8 | 94.4 | 116 | 109 | 90.5 | 109 | 109 | 111 | 111 | 116 | 124 | 109 | 104 | 112 | 117 | 98.4 |
| CNC(=O)c1c(F)cccc1Nc1nc(Nc2cc3c(cc2OC)CCN3C(=O)CN(C)C)nc2[nH]ccc12 | 84.8 | 92.2 | 94.8 | 100 | 83.5 | 58.3 | 40.5 | 31.9 | 22 | 3.15 | 1.16 | 90.3 | 90.5 | 83.2 | 97.9 | 88.7 | 51 | 34.8 | 27.3 | 13.5 | 1.01 | 0.384 | 93.6 | 96.8 | 93.6 | 105 | 94.7 | 58.4 | 32.8 | 30.2 | 13.4 | 2.8 | 0.739 |
| O=P(O)(O)C(O)(Cc1cccnc1)P(=O)(O)[O][Na] (stereo unspecified) | 83 | 67.3 | 100 | 21.8 | 102 | 111 | 104 | 108 | 111 | 107 | 116 | 89.6 | 51.7 | 91 | 14.2 | 95.7 | 100 | 90.3 | 96.8 | 110 | 100 | 112 | 96.1 | 52.9 | 92.7 | 22.1 | 121 | 116 | 113 | 102 | 118 | 108 | 123 |
| O=C(Oc1ccc([N+](=O)[O-])cc1)N1CCN(Cc2cccc(Oc3ccccc3)c2)CC1 | 94.6 | 100 | 93.4 | 106 | 103 | 64.4 | 120 | 116 | 107 | 107 | 121 | 90.4 | 86.1 | 99.5 | 106 | 93.6 | 67.1 | 111 | 106 | 102 | 95.9 | 101 | 112 | 108 | 108 | 125 | 115 | 60.9 | 109 | 108 | 114 | 110 | 121 |
| CCCCCCCCCCCCCCCC(=O)OC[C@@H](NC(=O)C(Cl)Cl)[C@H](O)c1ccc([N+](=O)[O-])cc1 | 90.3 | 113 | 114 | 116 | 121 | 121 | 118 | 123 | 131 | 116 | 119 | 120 | 117 | 132 | 122 | 136 | 138 | 132 | 124 | 128 | 133 | 129 |  |  |  |  |  |  |  |  |  |  |  |
| NC/1=N/C(=O)N(/C=C1)[C@H]2CC[C@@H](CO)O2 | 78.3 | 95 | 93.8 | 103 | 101 | 104 | 109 | 121 | 103 | 23 | 72.2 | 71.7 | 88.8 | 103 | 92 | 88.3 | 101 | 93.4 | 96.1 | 110 | 17 | 80.1 | 68.7 | 87.4 | 94.3 | 94.3 | 102 | 88.1 | 88.6 | 98.4 | 78 | 17.2 | 53.4 |
| CNC(=O)c1cc(Oc2ccc(NC(=O)Nc3cc(C(C)(C)C)nn3-c3ccc4ncccc4c3)c(F)c2)ccn1 | 98.3 | 113 | 118 | 113 | 116 | 102 | 80.5 | 66.6 | 61.7 | 52.2 | 41.6 | 108 | 114 | 107 | 115 | 122 | 99.2 | 85.3 | 61.3 | 50.5 | 39.2 | 26.2 |  |  |  |  |  |  |  |  |  |  |  |
| CO[C@@H]1[C@H](N(C)C(=O)c2ccccc2)C[C@H]2O[C@]1(C)n1c3ccccc3c3c4c(c5c6ccccc6n2c5c31)C(=O)NC4 | 103 | 104 | 119 | 97 | 114 | 105 | 55.5 | 37.6 | 20.7 | 12.7 | 7 | 87 | 111 | 110 | 106 | 105 | 92.4 | 64.2 | 30.3 | 10.9 | 6.27 | 4.63 | 101 | 108 | 109 | 97 | 107 | 85.5 | 63 | 34.7 | 11.8 | 7.3 | 4.43 |
| COc1ccc(-c2c(-c3ccc(O)cc3O)n[nH]c2C)cc1 | 98.3 | 95.8 | 114 | 108 | 110 | 108 | 88.8 | 95.5 | 86 | 62.2 | 51.1 | 114 | 104 | 107 | 109 | 108 | 108 | 103 | 84.3 | 84.1 | 44 | 20.9 | 98.6 | 96.8 | 93 | 101 | 103 | 108 | 96.2 | 99.5 | 87 | 54.4 | 30.9 |
